Source: patent US11602578B2, “Crosslinkable polypeptide and hyaluronic acid coatings” (Université de Strasbourg, priority 2017, dated 2023)

Key:
S. aureus [1] = assay: PAR in solution: S. aureus growth and minimal inhibitory concentration in MHB medium; type: cell-based, Staphylococcus aureus; settings: for inhibition of S. aureus growth by PAR in solution (in words): concentrations up to 0.04 mg·mL^−1, 24 h at 37° C. in MHB; for times less active than PAR100 or PAR200 chains: from the MICs determined in solution; for inhibition of bacterial growth by PAR in solution (in words): at 1 μM
Experimental: PAR with 10, 30, 100 or 200 arginine residues per chain were tested. Each PAR was incubated 24 h at 37° C. in 300 μL of MHB medium with S. aureus (A620=0.001). Pathogen growth of 0% corresponds to medium with antibiotics (and without PAR) and 100% to medium without PAR. Each value corresponds to the mean value of 3 individual experiments (3 samples per experiment and condition) and error bars correspond to standard deviations. For each concentration, the first column represents the normalized pathogen growth of S. aureus for PAR10, the 2nd column for PAR30, the third column for PAR100 and the fourth for PAR200.
In the following the inventors of the present invention wanted to further elucidate the underlying mechanism that confer to the coatings of the invention the strong inhibitory property on the surface and in the supernatant. As an example the (PAR30/HA)24 coating was further investigated. Accordingly, the minimal inhibitory concentration (MIC) of PAR in solution was determined using bacterial assay as described in Experimental Section. […] Finally for PAR at concentrations of 0.01 mg·mL^−1, inhibition of 100% was shown only for PAR30. Longer or shorter PAR chains (PAR10, PAR100 or PAR200) inhibits only partially (less than 40%) S. aureus growth. […] This reasoning is valid when PAR concentration values are expressed in mass (mg·mL^−1) thus it is related to the number of arginine monomers. However when the graph is plotted with concentrations in μM (and thus proportional in number of chains), which means that concentration is related to number of chains, different interpretation can be made. […] Moreover the MIC100 values obtained for PAR30, PAR100 or PAR200 ranges at very low concentrations (between 1 and 2 μM) which is remarkable when compared to well-known antimicrobial peptides (for example 30 μM for cateslytin with S. aureus, see Adv. Funct. Mater. 2013, 23, 4801-4809). PAR is thus a powerful candidate to fight against S. aureus.

S. aureus [2] = settings: with S. aureus; Adv. Funct. Mater. 2013, 23, 4801-4809; cited from earlier work

Substance	inhibition of S. aureus growth by PAR in solution (S. aureus [1]; 0.01 mg·mL^−1, 24 h at 37° C. in MHB) [%]	MIC90 (S. aureus [1]; S. aureus, PAR in solution)	concentration needed to totally inhibit bacterial growth in solution (S. aureus [1]; S. aureus, PAR in solution)	inhibition of S. aureus growth by PAR in solution (in words) (S. aureus [1])	times less active than PAR100 or PAR200 chains (S. aureus [1]) [times]	inhibition of S. aureus growth by PAR in solution (S. aureus [1]; 0.02 mg·mL^−1, 24 h at 37° C. in MHB)	inhibition of bacterial growth by PAR in solution (in words) (S. aureus [1])	MIC of a known antimicrobial peptide (S. aureus [2]) [µM]
poly-L-arginine [PAR30]	100	about 2 μM	about 10 μM	totally inhibited	2	–	–	–
poly-L-arginine [PAR200]	–	–	–	totally inhibited	–	about 45%	totally inhibit	–
poly-L-arginine [PAR10]	–	–	about 10 μM	totally inhibited	10	–	–	–
poly-L-arginine [PAR100]	–	–	–	totally inhibited	–	–	totally inhibit	–
cateslytin	–	–	–	–	–	–	–	30
